Laboratory results reported in PMC10376059, “New NADPH Oxidase 2 Inhibitors Display Potent Activity against Oxidative Stress by Targeting p22^phox-p47^phox Interactions” (Antioxidants, 2023).

Tests used:
[1] = biological target: T1, NOX2 (Homo sapiens, UniProt P14598); experiment: NADPH oxidase (NOX2) inhibition, DCF fluorescence in PMA-activated neutrophil-differentiated HL-60 cells; type: cell-based; details: for IC50: neutrophil-differentiated HL-60 cells, PMA 0.8 µM, DCF fluorescence, 0.05 to 50 µM
T1 construct: HL-60 cells expressed the components of NOX2, including gp91, p22^phox, p47^phox, and p67^phox; endogenous in cells; whole cells in A1, membrane preparations in A3 and A4
T1 sequence (P14598 1-390): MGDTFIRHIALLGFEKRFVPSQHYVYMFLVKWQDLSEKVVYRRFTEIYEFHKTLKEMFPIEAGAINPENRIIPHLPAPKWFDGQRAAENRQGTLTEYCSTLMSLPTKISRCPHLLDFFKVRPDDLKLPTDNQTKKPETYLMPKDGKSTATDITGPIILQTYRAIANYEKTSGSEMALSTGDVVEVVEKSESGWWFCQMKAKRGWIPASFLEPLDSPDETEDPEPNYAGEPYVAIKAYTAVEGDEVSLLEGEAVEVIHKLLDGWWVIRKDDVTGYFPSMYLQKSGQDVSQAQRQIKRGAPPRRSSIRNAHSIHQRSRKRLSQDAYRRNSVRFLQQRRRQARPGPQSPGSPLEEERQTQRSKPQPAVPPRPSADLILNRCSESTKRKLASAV
Procedure: The differentiation of HL-60 cells to neutrophils was performed after reaching a concentration of between 2 × 10^6 and 5 × 10^6 cells/mL in the differentiation medium: RPMI 1640 medium; 10% FBS; 100 IU/mL of penicillin/streptomycin; and 1.3% DMSO for 7 days, replenishing the differentiation medium every 2 days.
The 2′,7′-dichlorofluorescein (DCF) fluorescence analysis was used to determine NADPH oxidase activity in neutrophil-differentiated HL-60 cells. The method, based on a fluorimetric assay, was adapted from Boly et al.. Briefly, 1 × 10^6 neutrophil-differentiated HL-60 cells/mL were incubated for 45 min. at 37 °C in darkness with DCF-DA (1 mg/mL). The cell suspension was then transferred to a 15 mL conical tube and centrifuged at 330× g × 10 min at 37 °C. After the supernatant was removed, the cells were re-suspended in Hanks balanced saline buffer (HBSS, Sigma-Aldrich, St. Louis, MO, USA) and transferred to dark 96-well plates with a flat glass bottom (Thermo Scientific Nunc 96 microwell® black, Optical Botton # 1.5 Cover Glass Base, Thermo Fisher Scientific). Then, 200 μL of cell suspension per well were incubated at 37 °C for 30 min with the indole heteroaryl-acrylonitriles at increasing concentrations (0.05 to 50 μM). […] Finally, PMA (0.8 μM) was added to each well for 10 min. to generate the activation of NOX2. The generation of the DCF fluorescence product was monitored in an automatic microplate reader (FLx800, BioTek Instruments, Winooski, VT, USA) at 1-min intervals at 37 °C for 1 h, using an excitation wavelength of 485 nm and an emission wavelength of 555 nm. The ability to inhibit ROS production by activated neutrophil-differentiated HL-60 cells was compared against the different controls. A control was performed with cells activated by PMA in the presence of DMSO and established as having 100% of the ROS-induced fluorescence. Inhibition control was performed in the presence of VAS2870 (20 µM) and activated by PMA. Another control (NA, not activated) was done with cells in the absence of PMA and the indole heteroaryl-acrylonitriles.
All the experiments were performed in triplicate, using three different cell preparations, and the data were reported as mean ± s.e.m. For the determination of the IC50 of the indole heteroaryl-acrylonitriles, concentration-response curves (0.05 to 50 μM) were constructed. IC50 values were given as the mean ± standard deviation for at least three independent assays. The data were analyzed using one- and two-way ANOVA. A value of p < 0.05 was considered statistically significant. Statistical analyses were performed using the program GraphPad Prism® version 6.00, San Diego, CA, USA.

[2] = MTT cytotoxicity assay; type: cell-based, human; details: human; HL-60 cells, 24 h, 10 mM, MTT; read-out: cell viability
Procedure: (§1) To verify the cytotoxicity of the acrylonitrile derivatives, the MTT reduction method was performed. Briefly, HL-60 cells were seeded in a flat-bottomed 96-well plate at a density of 10,000 cells per well. […] In a second series of experiments, cells were incubated under the same conditions but for 72 h. Etoposide was used as a positive control. Ten μL of MTT was added at a final concentration of 0.5 mg/mL, incubated at 37 °C for 4 h, and then solubilized with 10% SDS in 0.1 mM HCl and incubated overnight at 37 °C. Finally, a blue-colored compound (formazan) formation was measured at 570 nm in a multiplate reader (StatFax 4200, Awareness Technology, Inc., Palm City, FL, USA). The viability percentage was obtained as follows: Viability % = [treated cells DO × 100]/[DO cells control].

[3] = tested on: HL-60 cells; experiment: MTT cytotoxicity assay; type: cell-based, human; details: 72 h, 0.01 µM to 100 µM, MTT
Procedure: as §1

[4] = DPPH radical scavenging activity; type: physicochemical
Procedure: The newly synthesized compounds were evaluated for 2,2-diphenyl-1-picrylhydrazyl […] free radical scavenging activity. The reduction and stabilization of DPPH by antioxidant compounds lead to discoloration, resulting in a decrease in absorbance at 517 nm, which was expressed as a percentage of the radical solution at a given concentration of discoloration. The heteroarylacrylonitrile derivatives were re-suspended in a minimum of DMSO at a final concentration of 5 mg/mL (stock solution). From these, they were diluted to concentrations of 1000, 500, and 100 μg/mL. These solutions were mixed with a methanol solution of DPPH (20 μg/mL) for 5 min. Each compound was evaluated in triplicate; absorbance at 517 nm in a UNICAM UV/visible spectrophotometer Helios-α (Thermo Electron Corporation, Waltham, MA USA) was measured by subtracting the solvent absorbance and comparing the resulting value with that of a blank sample. The percentage of discoloration was established according to the following formula: % Radical removal or discoloration = (1 − (AM − ABM)/AC) × 100, where AM is the absorbance of the sample compound, ABM is the absorbance of the sample blank, and AC is the absorbance of the control. The degree of discoloration indicates the efficacy of the compounds studied as free radical scavengers; therefore, a percentage of discoloration of 100 indicates the maximum radical scavenging capacity and a value close to 0 indicates a zero radical scavenging capacity. Quercetin was used as a reference compound in a concentration range of 1.25 to 7.5 μg/mL.

Compound | IC50 [1] | other results
N#C/C(=C\c1ccc(-c2ccc(Cl)cc2)o1)C(=O)c1c[nH]c2ccccc12 [Compound C1] | 21.5 ± 0.3 µM | viability at 24 h, 10 mM [2]: 60%
Cc1nn(-c2ccccc2)c(Cl)c1/C=C(\C#N)C(=O)c1c[nH]c2ccccc12 [Compound C2] | 7.2 ± 0.3 µM | 
N#C/C(=C\c1ccc(-c2ccccc2)cc1)C(=O)c1c[nH]c2ccccc12 [Compound C3] |  | cytotoxicity (in words) [3]: non-cytotoxic
N#C/C(=C\c1ccc(N2CCOCC2)cc1)C(=O)c1c[nH]c2ccccc12 [Compound C4] | 7.1 ± 0.4 µM | antioxidant capacity, DPPH discoloration (in words) [4]: showed antioxidant capacity only at very high concentrations; viability at 24 h, 10 mM [2]: 60%
N#C/C(=C\c1cc(-c2ccc(F)cc2)on1)C(=O)c1c[nH]c2ccccc12 [Compound C5] | 6.2 ± 0.4 µM | 
N#C/C(=C\c1ccc(-c2ccc([N+](=O)[O-])cc2)o1)C(=O)c1c[nH]c2ccccc12 [Compound C7] | 68.1 ± 1.2 µM | 
CC(C)c1ccc2occ(/C=C(\C#N)C(=O)c3c[nH]c4ccccc34)c(=O)c2c1 [Compound C8] | 17.1 ± 0.2 µM | antioxidant capacity, DPPH discoloration (in words) [4]: showed antioxidant capacity only at very high concentrations; viability at 24 h, 10 mM [2]: 60%
Cc1ccc2occ(/C=C(\C#N)C(=O)c3c[nH]c4ccccc34)c(=O)c2c1 [Compound C9] | 4.7 ± 0.3 µM | antioxidant capacity, DPPH discoloration (in words) [4]: showed antioxidant capacity only at very high concentrations; inhibition of NOX2-derived ROS production (in words) ([1]; PMA-activated HL-60 cells, 0.05 µM to 50 µM): exhibited concentration-dependent inhibition of NOX2; cytotoxicity (in words) [3]: non-cytotoxic
N#C/C(=C\c1coc2ccccc2c1=O)C(=O)c1c[nH]c2ccccc12 [Compound C10] | 9.4 ± 0.3 µM | viability at 24 h, 10 mM [2]: 60%
CCc1ccc2occ(/C=C(\C#N)C(=O)c3c[nH]c4ccccc34)c(=O)c2c1 [Compound C11] | 19.9 ± 0.2 µM | 
N#C/C(=C\c1c(N)oc2ccccc2c1=O)C(=O)c1c[nH]c2ccccc12 [Compound C12] | 21.1 ± 0.2 µM | 
N#C/C(=C\c1cccnc1)C(=O)c1c[nH]c2ccccc12 [Compound C13] | 16.3 ± 0.2 µM | 
CC(C)(C)OC(=O)N1CCN(c2ccc(/C=C(\C#N)C(=O)c3c[nH]c4ccccc34)cc2)CC1 [Compound C15] | 30.4 ± 0.3 µM | 
N#C/C(=C\c1ccco1)C(=O)c1c[nH]c2ccccc12 [Compound C16] | 82.7 ± 0.2 µM | 
CC(=O)OCc1ccc(/C=C(\C#N)C(=O)c2c[nH]c3ccccc23)o1 [Compound C17] | 19.7 ± 0.2 µM | 
N#C/C(=C\c1ncc[nH]1)C(=O)c1c[nH]c2ccccc12 [Compound C18] | 51.3 ± 0.2 µM | 
Cn1ccnc1/C=C(\C#N)C(=O)c1c[nH]c2ccccc12 [Compound C19] | 69.3 ± 0.2 µM | 
